Data on 19 compounds can be found in ChEMBL document CHEMBL1153855, “Discovery of a new family of bis-8-hydroxyquinoline substituted benzylamines with pro-apoptotic activity in cancer cells: synthesis, structure-activity relationship, and action mechanism studies” (2009).

Assay [1] is filed under the species Ovis aries. Description: Inhibition of lamb brain microtubule disassembly at 4 deg C.
In the next assay the test system is HepG2. Description: Cytotoxicity against human HepG2 cells. Format: functional.
The test system of assay [2] is HL-60. Description: Induction of apoptosis in human HL60 cells assessed as activation of caspase 3/7 at 1 uM. Type of assay: functional, cell-based.
The test system of assay [3] is MCF7. In words: Cytotoxicity against multidrug-resistant human MCF7 cells expressing P-gp. Type of assay: functional.
Another assay relates to PC-3. Description: Cytotoxicity against human PC3 cells. Type of assay: functional.
The subject of a further assay is SK-OV-3. In words: Cytotoxicity against human SKOV3 cells. Type of assay: functional.
A short description of assay [4]: Inhibition of trypsin-like activity in proteasome. Format: subcellular.
In another assay the test system is SF-268. Description: Cytotoxicity against human SF268 cells. Type of assay: functional.
Assay [5] concerns HL-60. In words: Antiproliferative activity against human HL60 cells at 10 uM after 24 hrs by trypan blue exclusion assay in absence of CuCl2. Format: functional, cell-based.
The subject of another assay is HCT-116. In words: Cytotoxicity against human HCT116 cells. Format: functional.
The subject of assay [6] is MCF7. Description: Cytotoxicity against human MCF7 cells. Format: functional.
The species named for assay [7] is Ovis aries. Description: Inhibition of lamb brain tubulin assembly at 37 deg C.
The test system of assay [8] is HL-60. In words: Induction of apoptosis in human HL60 cells assessed as activation of caspase 3/7. Format: functional, cell-based.
A short description of assay [9]: Cytotoxicity against human KB-3-1 cells after 72 hrs by MTS assay. Type of assay: functional. As to conditions: KB 3-1, 72 h. (In general: Tetrazolium dyes change colour on reduction, which living cells bring about.)
Assay [10] relates to HL-60. Description: Antiproliferative activity against human HL60 cells at 10 uM after 24 hrs by trypan blue exclusion assay in presence of CuCl2. Type of assay: functional, cell-based.
The next assay relates to HCT-15. Description: Cytotoxicity against human HCT15 cells expressing P-gp. Format: functional.
Assay [11] deals with HL-60. Description: Cytotoxicity against human HL60 cells. Format: functional.
Assay [12] concerns HL-60. In words: Induction of apoptosis in human HL60 cells assessed as PARP cleavage at 10 uM after 24 hrs by Western blot. Type of assay: functional, cell-based.
The subject of assay [13] is HL-60. In words: Induction of apoptosis in human HL60 cells assessed as activation of caspase 9 at 1 uM. Format: functional, cell-based.
Assay [14] has as its system HL-60. Description: Induction of apoptosis in human HL60 cells assessed as activation of caspase 3/7 at 0.1 uM. Format: functional, cell-based.
The nature of assay [15]: Inhibition of chymotrypsin-like activity in proteasome. Format: subcellular.
Another assay concerns K562. Description: Cytotoxicity against human K562 cells. Format: functional.
Assay [16] is described as follows: Cytotoxicity against human KB3 cells. Format: functional.
For assay [17], the system named is HL-60. In words: Induction of apoptosis in human HL60 cells assessed as activation of caspase 3/7 at 0.01 uM. Format: functional, cell-based.
Assay [18] has as its system HL-60. Description: Induction of apoptosis in human HL60 cells assessed as activation of caspase 8 at 1 uM. Format: functional, cell-based.
The subject of a further assay is A549. In words: Cytotoxicity against human A549 cells. Type of assay: functional.

Active and inactive are the calls of the source. The calls are words filed in the database; no cut-off is given here. Some results are limits rather than exact numbers.

By CC50 is commonly meant the concentration at which the toxic effect on the cells reaches its halfway point. Consider `Oc1ccc(CN(Cc2ccc(C(F)(F)F)cc2)Cc2ccc(O)c3ncccc23)c2cccnc12`, for which the result in the assay filed under Ovis aries [1], with HL-60 [2], in the assay on HL-60 [10] and in the assay on HL-60 [14] was Active. Besides, the CC50 in the assay on HepG2 is 22.8 nM; in the assay on MCF7 [3], 4.7 nM; with PC-3, 206 nM; in the assay on SK-OV-3, 3 nM; in the assay on SF-268, 91 nM; with HCT-116, 1 nM. The CC50 in the assay with MCF7 [6] was determined as 1.2 nM; in [9], 1.3 nM; in the assay with HCT-15, 0.8 nM; with HL-60 [11], 10.9 nM; with K562, 5.2 nM; in assay [16], 1.5 nM. Half-maximal cytotoxicity in the assay on A549 (CC50) was put at 0.9 nM. Moreover, the result (in [4]; in the assay with HL-60 [5]; in the assay filed under Ovis aries [7]; in the assay on HL-60 [12]; in the assay on HL-60 [13]; in assay [15]) was inactive. Also, the outcome in the assay with HL-60 [17] and with HL-60 [18] was inactive. Further, the Activity entry in the assay with HL-60 [8] was “Dose-dependent effect”.
Regarding `Cc1ccc([C@H](C)N(Cc2ccc(O)c3ncccc23)Cc2ccc(O)c3ncccc23)cc1`, half-maximal cytotoxicity in assay [9] (CC50) was put at 41 nM.
Take `Cc1ccc(CN(Cc2ccc(O)c3ncccc23)Cc2ccc(O)c3ncccc23)cc1`: the CC50 in the assay with HepG2 amounted to 52.1 nM; in the assay with MCF7 [3], 37.3 nM; in the assay on PC-3, 343 nM; with SK-OV-3 it was 8 nM; in the assay on SF-268, 178 nM; in the assay on HCT-116 it was 3.2 nM. The CC50 was found to be 5.4 nM in the assay on MCF7 [6]; 2.6 nM in [9]; 6 nM in the assay with HCT-15; 32.7 nM in the assay with HL-60 [11]; 40.8 nM with K562; 8.5 nM in assay [16]. Moreover, the 50% cytotoxic concentration (CC50) with A549 amounted to 4.3 nM. Further, the result in the assay with HL-60 [2], in the assay with HL-60 [10] and with HL-60 [14] was Active. Besides, the result (in assay [4]; with HL-60 [5]; with HL-60 [12]; with HL-60 [13]; in assay [15]; with HL-60 [17]) was inactive. Moreover, in the assay with HL-60 [18], the result was inactive. Also, the Activity entry in the assay with HL-60 [8] is “Dose-dependent effect”.
As to `O=[N+]([O-])c1ccc(CN(Cc2ccc(O)c3ncccc23)Cc2ccc(O)c3ncccc23)cc1`, half-maximal cytotoxicity in assay [9] (CC50) was put at 42 nM. This lies in the double-digit nanomolar range.
As to `Oc1ccc(CN(Cc2cccc3ccccc23)Cc2ccc(O)c3ncccc23)c2cccnc12`, in assay [9], the CC50 worked out at 5 nM.
On the same count and under the same terms, the same measure for `Oc1ccc(CNCc2cccc3ccccc23)c2cccnc12`: > 1000 nM; for `Oc1ccc(CNCc2ccccc2C(F)(F)F)c2cccnc12`: 200 nM; for `Cc1ccc(CNCc2ccc(O)c3ncccc23)cc1`: > 10000 nM.
`CC(C)(C)OC(=O)N(Cc1ccccc1C(F)(F)F)Cc1ccc(O)c2ncccc12` registered a CC50 in assay [9] of 1000 nM.
`CC(=O)O[C@H]1C(=O)[C@@]2(C)[C@H]([C@H](OC(=O)c3ccccc3)[C@]3(O)C[C@H](OC(=O)[C@H](O)[C@@H](NC(=O)c4ccccc4)c4ccccc4)C(C)=C1C3(C)C)[C@]1(OC(C)=O)CO[C@@H]1C[C@@H]2O` [PACLITAXEL] registered a CC50 in assay [16] of 0.1 nM. This counts as sub-nanomolar.
As to `Oc1ccc(CN(Cc2ccccc2C(F)(F)F)Cc2ccc(O)c3ncccc23)c2cccnc12`, in assay [9], the CC50 came to 123 nM.
As to `CC(=O)O[C@@]12CO[C@@H]1C[C@H](O)[C@@]1(C)C(=O)[C@H](O)C3=C(C)[C@@H](OC(=O)[C@H](O)[C@@H](NC(=O)OC(C)(C)C)c4ccccc4)C[C@@](O)([C@@H](OC(=O)c4ccccc4)[C@H]21)C3(C)C` [DOCETAXEL], in assay [9], the CC50 was 0.25 nM.
In [9], `Oc1ccc(CNCc2ccc(C(F)(F)F)cc2)c2cccnc12` gave a CC50 of 10000 nM.
On to `Oc1ccc(CNCc2ccccc2)c2cccnc12`, for which, in assay [9], the CC50 is > 1000 nM.
Turning to `Cc1ccc([C@H](C)N(Cc2ccc(O)c3ncccc23)C(=O)OC(C)(C)C)cc1`, in assay [9], the CC50 was > 1000 nM.
With `Oc1c(I)cc(Cl)c2cccnc12`, the result in the assay on HL-60 [5] was inactive.
As for `Cc1ccc([C@H](C)NCc2ccc(O)c3ncccc23)cc1`, the CC50 in assay [9] was > 1000 nM.
The compound `CC(C)(C)OC(=O)N(Cc1ccc(C(F)(F)F)cc1)Cc1ccc(O)c2ncccc12` displayed a half-maximal cytotoxic concentration (CC50) in assay [9] of 10000 nM.
With `Oc1ccc(CN(Cc2ccccc2)Cc2ccc(O)c3ncccc23)c2cccnc12`, in assay [9], the 50% cytotoxic concentration (CC50) is 15 nM. This CC50 lies about 670-fold lower than the previous one.
